Source: ChEMBL document CHEMBL1201862, “PubChem BioAssay data set” (2004)
Activity calls are given as the source filed them.

Tests used:
[1] = blockers of HIV-1 ZM109 envelope-driven cell-cell fusion – HeLa effector, CEM target cells, luciferase, cherry-pick, dose response (AID 652058); format: functional, cell-based;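 also: luciferase signal from HIV-1 Env mediated cell-cell fusion of effector and target cells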
[2] = blockers of HIV-1 envelope-mediated cell-cell fusion – cherry-pick, dose response (AID 652057); format: functional, cell-based
[3] = off-target signal loss in HeLa-CEM21 co-culture – HeLa F-luc CTL cells, cherry-picked, counter-screen for HIV-1 Env fusion inhibitor project, dose response (AID 652040); format: functional, cell-based;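 also: potency for signal decrease marking cytotoxic or nonspecific inhibition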
[4] = HIV-1 AD8 envelope cell-cell fusion blockers – cherry-pick, dose response (AID 652062); format: functional, cell-based;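 also: luciferase signal from cell-cell fusion driven by HIV-1 clade B AD8 Env; potency is for inhibitors of fusion seen as a drop in luminescence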
[5] = tested on: BJ; assay: cells; format: functional, cell-based; details: Homo sapiens
[6] = tested on: BJ; assay: BJ-TERT-LT-ST fibroblast viability loss – cell-based, RAS-independent, luminescence, dose response (AID 1935); format: functional; details: Homo sapiens;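 also: BJ fibroblasts immortalized with TERT plus LT and ST oncogenes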
[7] = DRD fibroblast viability loss – cell-based, non-viral oncogenic, luminescence, dose response (AID 1934); format: functional; details: Homo sapiens
[8] = tested on: BJ; assay: BJ-TERT fibroblast viability loss – cell-based, RAS-independent, luminescence, dose response (AID 1933); format: functional; details: Homo sapiens
[9] = A549 cell cytotoxicity, dose response, cytotoxicity control, plate reader, cherry-pick, antagonist series (AID 743412); format: functional, cell-based
[10] = toxicity toward HepG2 liver cells – cell-based, plate reader, cherry-pick, antagonist series, cytotoxicity control, dose response (AID 743416); format: functional
[11] = cells; format: functional, cell-based
[12] = cells; format: functional, cell-based; remark: listed apart in the source
[13] = tested on: SN12K1; assay: cells; format: functional; details: Homo sapiens
[14] = tested on: P388/ADR; assay: cells; format: functional; details: Mus musculus
[15] = tested on: P388; assay: cells; format: functional; details: Mus musculus
[16] = OVCAR-3 cell viability loss – plate reader, dry powder samples, PAX8 inhibitor project, dose response (AID 743044); format: functional, cell-based
[17] = target: Paired box protein Pax-8 (Homo sapiens, UniProt Q06710); assay: PAX8 transcriptional activity inhibition in RMG-I – RMG-I cells, luciferase, cherry-pick, dose response (AID 687027); format: functional, cell-based;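 also: luciferase reporter driven by Pax8 target thyroperoxidase promoter measured by SteadyGlo luminescence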
Paired box protein Pax-8, sequence (Q06710 whole entry): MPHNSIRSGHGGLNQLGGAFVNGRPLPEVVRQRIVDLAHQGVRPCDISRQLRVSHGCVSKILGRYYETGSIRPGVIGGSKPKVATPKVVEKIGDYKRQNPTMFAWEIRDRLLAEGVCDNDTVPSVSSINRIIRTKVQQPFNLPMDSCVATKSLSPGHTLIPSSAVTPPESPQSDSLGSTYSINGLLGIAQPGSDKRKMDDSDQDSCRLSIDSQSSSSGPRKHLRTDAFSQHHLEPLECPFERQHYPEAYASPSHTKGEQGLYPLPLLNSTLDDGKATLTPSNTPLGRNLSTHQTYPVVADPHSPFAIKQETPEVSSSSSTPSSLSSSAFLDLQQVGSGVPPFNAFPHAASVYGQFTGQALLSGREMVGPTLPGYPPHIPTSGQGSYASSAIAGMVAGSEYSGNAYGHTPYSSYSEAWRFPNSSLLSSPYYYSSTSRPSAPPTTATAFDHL

[18] = target: Nonstructural protein 1 (Influenza A virus, UniProt Q194T2); format: functional, Influenza A virus (A/California/07/2009(H1N1))
Nonstructural protein 1, sequence (Q194T2 whole entry): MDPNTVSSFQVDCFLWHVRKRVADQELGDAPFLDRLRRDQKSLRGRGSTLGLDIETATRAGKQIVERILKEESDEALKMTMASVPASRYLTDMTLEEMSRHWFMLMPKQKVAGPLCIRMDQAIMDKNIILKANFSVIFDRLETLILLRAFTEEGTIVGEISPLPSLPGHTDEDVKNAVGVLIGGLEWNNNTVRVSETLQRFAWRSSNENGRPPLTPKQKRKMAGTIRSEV

[19] = P. falciparum Dd2 growth inhibitors, dose response, SYBR Green, cherry-picked samples (AID 1159567); format: functional, cell-based
[20] = target: T1, Histone-lysine N-methyltransferase NSD2 (Homo sapiens, UniProt O96028); format: biochemical
T1 sequence (O96028 whole entry): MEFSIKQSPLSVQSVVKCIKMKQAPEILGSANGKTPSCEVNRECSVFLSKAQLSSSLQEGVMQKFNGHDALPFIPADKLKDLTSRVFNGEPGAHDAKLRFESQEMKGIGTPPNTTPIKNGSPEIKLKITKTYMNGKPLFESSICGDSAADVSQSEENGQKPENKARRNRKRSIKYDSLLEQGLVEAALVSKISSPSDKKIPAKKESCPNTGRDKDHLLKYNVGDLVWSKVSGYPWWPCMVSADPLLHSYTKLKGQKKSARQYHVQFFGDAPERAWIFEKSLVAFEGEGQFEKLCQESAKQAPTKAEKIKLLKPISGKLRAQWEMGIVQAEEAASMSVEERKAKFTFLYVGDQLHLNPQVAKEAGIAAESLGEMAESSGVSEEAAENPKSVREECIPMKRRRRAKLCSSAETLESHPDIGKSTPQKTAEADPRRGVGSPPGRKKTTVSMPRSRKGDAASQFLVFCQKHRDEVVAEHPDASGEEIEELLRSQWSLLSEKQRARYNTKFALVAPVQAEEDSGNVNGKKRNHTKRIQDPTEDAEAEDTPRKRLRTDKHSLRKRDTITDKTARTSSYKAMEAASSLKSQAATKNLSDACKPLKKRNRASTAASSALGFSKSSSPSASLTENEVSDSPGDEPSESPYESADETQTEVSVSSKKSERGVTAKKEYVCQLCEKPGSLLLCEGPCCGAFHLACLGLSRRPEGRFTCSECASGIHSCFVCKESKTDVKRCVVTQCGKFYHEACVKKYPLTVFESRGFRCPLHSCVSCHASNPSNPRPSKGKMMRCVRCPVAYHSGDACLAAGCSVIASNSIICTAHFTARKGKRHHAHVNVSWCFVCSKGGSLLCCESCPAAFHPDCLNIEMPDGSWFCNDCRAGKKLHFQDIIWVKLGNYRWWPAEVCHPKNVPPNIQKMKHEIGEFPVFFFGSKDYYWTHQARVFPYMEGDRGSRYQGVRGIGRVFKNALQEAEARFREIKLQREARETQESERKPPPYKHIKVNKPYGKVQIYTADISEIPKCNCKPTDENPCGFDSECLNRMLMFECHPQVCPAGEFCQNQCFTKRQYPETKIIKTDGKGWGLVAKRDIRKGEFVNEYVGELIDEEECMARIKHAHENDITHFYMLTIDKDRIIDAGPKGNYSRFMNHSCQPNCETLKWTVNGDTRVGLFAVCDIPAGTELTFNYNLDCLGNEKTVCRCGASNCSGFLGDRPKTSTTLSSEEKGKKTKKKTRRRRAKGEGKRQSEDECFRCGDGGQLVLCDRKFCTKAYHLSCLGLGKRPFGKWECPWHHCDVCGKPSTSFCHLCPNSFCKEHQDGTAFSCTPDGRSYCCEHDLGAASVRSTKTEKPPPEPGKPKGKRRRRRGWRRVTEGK

SMILES	GI50 [13]	GI50 [14]	GI50 [15]	further results
O=S(=O)(c1ccc(Cl)cc1)N1CCCN(c2nc3ccc(Cl)cc3s2)CC1	–	–	–	AC50 [1]: 0.922 µM (active); AC50 [2]: 3.94 µM (active); AC50 [3]: 4.14 µM (active); AC50 [4]: 5.18 µM (active)
COCCOC(=O)c1[nH]c2c(c1C)C(=O)CC(c1cccs1)C2 (stereo unspecified)	–	–	–	EC50 [5]: 66.4 µM (active); EC50 [6]: 3.8 µM (active); EC50 [7]: 12.9 µM (active); EC50 [8]: 4.56 µM (active)
CCOC(=O)[C@@H]1[C@H]2COc3cc(OC)ccc3[C@H]2N2C(=O)N(c3cccc(F)c3)C(=O)[C@@]12C	–	–	–	AC50 [2]: 35.2 µM (active)
c1ccc(COc2cccc(-c3cc4nc(NCCCn5ccnc5)ccn4n3)c2)cc1	–	–	–	AC50 [9]: 40 µM (active); AC50 [10]: > 52 µM (inactive)
CN1C(C(=O)NCCc2cccs2)CC2Cn3c(nc4ccccc43)C21 (stereo unspecified)	–	–	–	IC50 [11]: > 29.9 µM (inactive); EC50 [12]: > 29.9 µM (inactive)
CCCC[S+]([O-])CC(CO)NC(=O)/C=C/c1c(C)[nH]c(=O)[nH]c1=O (stereo unspecified)	6.01 µM (inactive)	1.5 µM (inactive)	1.58 µM (inactive)	–
N/C(=N\O)N/N=C\c1ccc(O)c(O)c1O	17.7 µM (inactive)	8.65 µM (inactive)	14.4 µM (inactive)	–
S=c1sc2c(s1)SC(c1ccccc1)CS2 (stereo unspecified)	> 89.5 µM (inactive)	44.6 µM (inactive)	9.86 µM (inactive)	–
COc1cc(/N=N\c2cccc(S(=O)(=O)O)c2)ccc1/N=N\c1ccc(/C=C/c2ccc(-n3on3-c3ccc(/C=C/c4ccc(/N=N/c5ccc(/N=N\c6cccc(S(=O)(=O)O)c6)cc5OC)cc4S(=O)(=O)O)c(S(=O)(=O)O)c3)cc2S(=O)(=O)O)c(S(=O)(=O)O)c1	> 100 µM (inactive)	> 100 µM (inactive)	> 100 µM (inactive)	–
COC(=O)C[C@H]1C=C[C@H](NC(=O)c2ccccn2)[C@@H](CO)O1	–	–	–	AC50 [1]: 0.414 µM (active)
C[C@@H]1CN([C@H](C)CO)C(=O)c2cc(NS(=O)(=O)c3cccs3)ccc2O[C@@H](C)CCCCO[C@@H]1CN(C)Cc1ccc(C(F)(F)F)cc1	–	–	–	AC50 [16]: 58.7 µM (active); AC50 [17]: 4.55 µM (active)
COc1cc(C2c3cc4c(cc3[C@@H](Nc3ccc(Oc5ccccc5)cc3)C3COC(=O)[C@H]23)OCO4)cc(OC)c1O (stereo partly specified)	0.935 µM (active)	0.407 µM (active)	0.0504 µM (active)	–
CCOc1cccc(/C=N/N2C(=O)CSC2=S)c1O	–	–	–	IC50 [18]: 1.83 µM (active)
C/C=C/c1ccc2n(c1=O)C[C@H]1[C@H](CO)[C@@H](C(=O)N3CCC(Cc4ccccc4)CC3)N(CCC)[C@@H]21.C/C=C\c1ccc2n(c1=O)C[C@H]1[C@H](CO)[C@@H](C(=O)N3CCC(Cc4ccccc4)CC3)N(CCC)[C@@H]21	–	–	–	AC50 [19]: 15.8 µM (active)
C[C@@H]1CN([C@@H](C)CO)C(=O)c2cc(C#Cc3ccccc3)cnc2O[C@H]1CN(C)C(=O)CN(C)C	–	–	–	AC50 [19]: 5.45 µM (active)
C=CCC1C=C(Cc2ccccc2)CC(CC=C)N1 (stereo unspecified)	–	–	–	AC50 [20]: > 20 µM (inactive)
Cc1c2ccncc2c(C)c2c1[nH]c1ccc(Cl)cc12	2.94 µM (inactive)	1.83 µM (inactive)	1.63 µM (inactive)	–
CC(CN1CC(=O)NC(=O)C1)N1CC(=O)NC(=O)C1 (stereo unspecified) [RAZOXANE]	58.1 µM (inactive)	141 µM (inactive)	1.85 µM (inactive)	–
